Patent US20040110265A1, “Recovery of enzyme activity from enveloped viruses” (priority 2001, published 2004)

Tests used:
FIV RT = settings: in foetal calf serum, 60 minutes at 22° C.
Method: (§1) Recombinant wild type HIV 1 RT (▪), Recombinant RT from a Nevirapine resistant HIV 1 mutant (Y181C) (⋄), Jaagsiekte virus (JSV) RT from a sheep lung cancer (▾), […] (FIV) RT (∘), Bovine Leukaemia virus (BLV) RT (♦) and Porcine Endogenous Retrovirus (PERV) RT (●)derived from cell culture were dilute in heat inactivated foetal calf serum. The different virus enzyme preparations and an EDTA plasma sample from a healthy blood donor (□) were incubated with indicated thimerosal concentration at room temperature (22° C.) for 60 minutes. All the samples were diluted 100 fold in an RT assay compatible buffer and the residual RT activity in each sample was then determined. Three RT assays, each adapted to the type of RT measured were used: HIV 1, JSV, and FIV RTs were measured with Cavidi® HS kit Lenti RT BLV RT with Cavidi® HS kit HTLV RT and PERV and human plasma RT with Cavidi® HS kit Mn^2+ RT.

[1] = biological target: Jaagsiekte virus (JSV) RT (Sheep pulmonary adenomatosis virus, UniProt P31623); settings: in foetal calf serum, 60 minutes at 22° C.
Chain of Jaagsiekte virus (JSV) RT (P31623 866-1446 limits assumed): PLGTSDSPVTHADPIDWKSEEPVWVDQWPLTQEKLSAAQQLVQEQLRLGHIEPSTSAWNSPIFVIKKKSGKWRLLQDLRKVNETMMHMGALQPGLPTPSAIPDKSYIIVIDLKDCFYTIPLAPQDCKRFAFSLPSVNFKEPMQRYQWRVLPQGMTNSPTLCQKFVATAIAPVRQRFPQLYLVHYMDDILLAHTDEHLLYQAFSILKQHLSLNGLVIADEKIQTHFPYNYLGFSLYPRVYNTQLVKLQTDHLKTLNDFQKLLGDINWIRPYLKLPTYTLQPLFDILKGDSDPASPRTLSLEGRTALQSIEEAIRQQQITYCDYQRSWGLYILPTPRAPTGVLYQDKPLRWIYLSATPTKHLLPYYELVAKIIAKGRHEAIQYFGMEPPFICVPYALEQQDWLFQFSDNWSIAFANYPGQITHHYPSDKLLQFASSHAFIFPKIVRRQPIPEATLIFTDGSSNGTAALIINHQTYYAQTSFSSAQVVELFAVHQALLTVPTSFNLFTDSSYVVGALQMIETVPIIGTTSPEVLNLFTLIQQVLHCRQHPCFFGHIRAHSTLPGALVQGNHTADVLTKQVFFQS
Method: as §1

[2] = biological target: Recombinant RT from a Nevirapine resistant HIV 1 mutant (Y181C) (Human immunodeficiency virus type 1 group M subtype B, UniProt P04585, Y768C); settings: in foetal calf serum, 60 minutes at 22° C.
Method: as §1

[3] = biological target: Recombinant wild type HIV 1 RT (Human immunodeficiency virus type 1 group M subtype B, UniProt P04585); settings: in foetal calf serum, 60 minutes at 22° C.
Method: as §1

human plasma RT = test: Selective destruction of endogenous RT activity in plasma, protocol I; format: biochemical; settings: EDTA plasma with disrupted lymphocytes, 1 hour at room temperature
Method: EDTA plasma with disrupted lymphocytes from a healthy blood donor and FIV diluted in inactivated foetal calf serum (totally devoid of plasma RT activity) were incubated for 1 hour at room temperature with indicated concentration of: A) 5,5′-dithiobis-(2-nitrobensoic acid), B) thimerosal. The samples were separated according to “Protocol for determination of retroviral RT from material which contains RT blocking antibodies”. The RT activities recovered were determined with an RT assay (Cavidi HS-kit Lenti RT).

human plasma polymerase = test: Resurrection of plasma polymerase activity after treatment with cysteine-modifying agents; format: biochemical
Method: A set of human plasma samples (60% plasma in water) was first incubated with 3 mM of indicated cysteine-modifying substance or water (as control) at room temperature for 1 hour. Serial dilutions of five potentially reactivating substances were then added and the samples were incubated for another hour. Each sample was finally diluted 1:20 and residual RT activity was determined with Cavidi® HS kit Lenti RT. The total reduction in substance concentration between sample incubation and RT assay was 200 times. The RT activities recovered were recalculated into percent of the activity of a control consisting of plasma incubated in absence of additions during both incubation steps.

C[CH2][Hg][S]c1ccccc1C(=O)[O-].[Na+] [Thimerosal]
Sensitivity of enzyme to thimerosal treatment (FIV RT): most sensitive
Sensitivity of enzyme to thimerosal treatment [1]: totally resistant
Sensitivity of enzyme to thimerosal treatment [2]: most sensitive
Sensitivity of enzyme to thimerosal treatment [3]: totally resistant
Concentration that totally eliminated the human plasma RT activity (human plasma RT): > 3 mM
Conditions required to reactivate polymerase activity treated with the agent (human plasma polymerase; 3 mM agent, then reactivating substances): quite easily reactivated
Polymerase activity after second incubation with DTT (% of control) (human plasma polymerase; 3 mM destroying agent first, 1.1 mM DTT): 84%
Polymerase activity after second incubation with MSA (% of control) (human plasma polymerase; 3 mM destroying agent first, 1.1 mM MSA): 17%
Polymerase activity after second incubation with cysteamine (% of control) (human plasma polymerase; 3 mM destroying agent first, 1.1 mM cysteamine): 0%
Polymerase activity after second incubation with cysteine (% of control) (human plasma polymerase; 3 mM destroying agent first, 1.1 mM cysteine): 4%
Polymerase activity after second incubation with glutathione (% of control) (human plasma polymerase; 3 mM destroying agent first, 1.1 mM glutathione): 12%
Polymerase activity after second incubation with DTT (% of control) (human plasma polymerase; 3 mM destroying agent first, 3.3 mM DTT): 248%
Polymerase activity after second incubation with MSA (% of control) (human plasma polymerase; 3 mM destroying agent first, 3.3 mM MSA): 19%
Polymerase activity after second incubation with cysteamine (% of control) (human plasma polymerase; 3 mM destroying agent first, 3.3 mM cysteamine): 0%
Polymerase activity after second incubation with cysteine (% of control) (human plasma polymerase; 3 mM destroying agent first, 3.3 mM cysteine): 14%
Polymerase activity after second incubation with glutathione (% of control) (human plasma polymerase; 3 mM destroying agent first, 3.3 mM glutathione): 21%
Polymerase activity after second incubation with DTT (% of control) (human plasma polymerase; 3 mM destroying agent first, 10 mM DTT): 377%
Polymerase activity after second incubation with MSA (% of control) (human plasma polymerase; 3 mM destroying agent first, 10 mM MSA): 7.3%
Polymerase activity after second incubation with cysteamine (% of control) (human plasma polymerase; 3 mM destroying agent first, 10 mM cysteamine): 2%
Polymerase activity after second incubation with cysteine (% of control) (human plasma polymerase; 3 mM destroying agent first, 10 mM cysteine): 37%
Polymerase activity after second incubation with glutathione (% of control) (human plasma polymerase; 3 mM destroying agent first, 10 mM glutathione): 37%
Polymerase activity after second incubation with DTT (% of control) (human plasma polymerase; 3 mM destroying agent first, 30 mM DTT): 448%
Polymerase activity after second incubation with MSA (% of control) (human plasma polymerase; 3 mM destroying agent first, 30 mM MSA): 3.4%
Polymerase activity after second incubation with cysteamine (% of control) (human plasma polymerase; 3 mM destroying agent first, 30 mM cysteamine): 1%
Polymerase activity after second incubation with cysteine (% of control) (human plasma polymerase; 3 mM destroying agent first, 30 mM cysteine): 68%
Polymerase activity after second incubation with glutathione (% of control) (human plasma polymerase; 3 mM destroying agent first, 30 mM glutathione): 7%
Polymerase activity after second incubation with water (% of control) (human plasma polymerase; 3 mM destroying agent first, water in second incubation): 0%
